Assay results taken from ChEMBL document CHEMBL5055651, “Synthesis of small molecules targeting paclitaxel-induced MyD88 expression in triple-negative breast cancer cell lines” (Bioorg Med Chem, 2021).

Legend:
MDA-MB-231 [1] = experiment: Cytotoxicity against human MDA-MB-231 cells expressing TLR4 assessed as reduction in cell viability measured after 96 hrs by MTT assay; assay type: functional, cell-based; conditions: MDA-MB-231, 96 h
HCC1806 [2] = experiment: Cytotoxicity against human HCC1806 cells assessed as reduction in cell viability measured after 96 hrs by MTT assay; assay type: functional, cell-based; conditions: HCC1806, 96 h
MCF7 [3] = experiment: Cytotoxicity against human MCF7 cells expressing TLR4 assessed as reduction in cell viability measured after 96 hrs by MTT assay; assay type: functional, cell-based; conditions: MCF7, 96 h
BEAS-2B = experiment: Cytotoxicity against human BEAS-2B cells reduction in cell viability measured after 96 hrs by MTT assay; assay type: cell-based
[4] = Effect on MyD88 expression in human MDA-MB-231 cells expressing TLR4 at 0.1 to 10 uM after 24 hrs by ELISA; assay type: cell-based; conditions: mda-mb-231, 24 h, dose 0.1-10 µM
[5] = Suppression of MyD88 expression in human MDA-MB-231 cells expressing TLR4 at 0.1 uM pretreated with compounds for 24 hrs followed by PTX challenge and measured after 24 hrs by ELISA relative to control; assay type: functional; conditions: time 48 hrs
[6] = Suppression of MyD88 expression in human MDA-MB-231 cells expressing TLR4 at 1 uM pretreated with compounds for 24 hrs followed by PTX challenge and measured after 24 hrs by ELISA relative to control; assay type: functional; conditions: time 48 hrs
[7] = Suppression of MyD88 expression in human MDA-MB-231 cells expressing TLR4 at 10 uM pretreated with compounds for 24 hrs followed by PTX challenge and measured after 24 hrs by ELISA relative to control; assay type: functional; conditions: time 48 hrs
MDA-MB-231 [8] = experiment: Cytotoxicity against human MDA-MB-231 cells expressing TLR4 assessed cell growth inhibition at 10 uM measured after 96 hrs by MTT assay relative to control; assay type: functional; conditions: read-out: GI
HCC1806 [9] = experiment: Cytotoxicity against human HCC1806 cells assessed cell growth inhibition at 10 uM measured after 96 hrs by MTT assay relative to control; assay type: functional; conditions: read-out: GI
MCF7 [10] = experiment: Cytotoxicity against human MCF7 cells expressing TLR4 assessed cell growth inhibition at 10 uM measured after 96 hrs by MTT assay relative to control; assay type: functional; conditions: read-out: GI
MDA-MB-231 [11] = experiment: Cytotoxicity against human MDA-MB-231 cells expressing TLR4 assessed as cell viability at 10 uM measured after 96 hrs by MTT assay relative to control; assay type: functional; conditions: read-out: Activity
HCC1806 [12] = experiment: Cytotoxicity against human HCC1806 cells assessed as cell viability at 10 uM measured after 96 hrs by MTT assay relative to control; assay type: functional; conditions: read-out: Activity
MCF7 [13] = experiment: Cytotoxicity against human MCF7 cells expressing TLR4 assessed as cell viability at 10 uM measured after 96 hrs by MTT assay relative to control; assay type: functional; conditions: read-out: Activity
[14] = Selectivity index, ratio of IC50 for human BEAS-2B cells to IC50 for human MDA-MB-231 cells; assay type: toxicity; conditions: BEAS-2B cells versus MDA-MB-231 cells, read-out: Selectivity Index
[15] = Selectivity index, ratio of IC50 for human BEAS-2B cells to IC50 for human MCF7 cells; assay type: toxicity; conditions: BEAS-2B cells versus MCF7 cells, read-out: Selectivity Index
MDA-MB-231 [16] = experiment: Cytotoxicity against human MDA-MB-231 cells expressing TLR4 assessed as growth inhibition measured after 96 hrs by MTT assay; assay type: functional, cell-based; conditions: MDA-MB-231, 96 h
HCC1806 [17] = experiment: Cytotoxicity against human HCC1806 cells assessed as growth inhibition measured after 96 hrs by MTT assay; assay type: cell-based; conditions: HCC1806, 96 h

Activity [4] [%] | Structure (SMILES) | IC50 (MDA-MB-231 [1]) [nM] | IC50 (HCC1806 [2]) [nM] | IC50 (MCF7 [3]) [nM] | IC50 (BEAS-2B) [nM] | Activity [5] [%] | Activity [6] [%] | Activity [7] [%] | inhibition of growth at 10 µM (MDA-MB-231 [8]) [%] | inhibition of growth at 10 µM (HCC1806 [9]) [%] | inhibition of growth at 10 µM (MCF7 [10]) [%] | viability at 10 µM (MDA-MB-231 [11]) [%] | viability at 10 µM (HCC1806 [12]) [%] | viability at 10 µM (MCF7 [13]) [%] | selectivity ratio [14] | selectivity ratio [15] | IC50 (MDA-MB-231 [16]) [nM] | IC50 (HCC1806 [17]) [nM]
23 | O=C(C1=C(O)/C(=C/c2ccc(C(F)(F)F)cc2)CCC1)c1ccccc1 | 6500 | 5330 | 2300 | 3800 | 17.64 | 24.77 | 27.94 | 8 | 8 | 8 |  |  |  |  |  |  | 
 | COc1cc(C)ccc1/C=C1\CCCC(C(=O)c2ccccc2)=C1O |  |  |  |  |  |  |  |  |  |  | 87 | 87 | 87 |  |  |  | 
 | CC(=O)O[C@H]1C(=O)[C@@]2(C)[C@H]([C@H](OC(=O)c3ccccc3)[C@]3(O)C[C@H](OC(=O)[C@H](O)[C@@H](NC(=O)c4ccccc4)c4ccccc4)C(C)=C1C3(C)C)[C@]1(OC(C)=O)CO[C@@H]1C[C@@H]2O [PACLITAXEL] | 40 | 9 | 30 | 8 |  |  |  |  |  |  |  |  |  | 0.2 | 0.26 | 27 | 8
